Experimental data published in article PMC4072508, “Genome-Wide Prediction and Validation of Peptides That Bind Human Prosurvival Bcl-2 Proteins” (PLoS Computational Biology, 2014).
Like-named read-outs stand apart in the source and are kept apart here. No end group written: not given here.

How the values were obtained:
Bcl-2 = target: T1, Bcl-2 (Homo sapiens, UniProt P10415, DEL53-91); experiment: Fluorescence polarization direct binding
T1 construct: myc- Bcl-2 FP; made in house
Method: (§1) Peptides were purified by reverse-phase HPLC using a C18 column and a linear water/acetonitrile gradient. We re-analyzed the purified peptide by mass spectrometry if there was not a single well-defined peak in HPLC chromatogram.
(§2) Fluorescence polarization (FP) assays were done at 25°C in assay buffer (20 mM NaPO4, 50 mM NaCl, 1 mM EDTA, 0.001% Triton X (v/v), pH 7.8). […] For all FP experiments, the total well volume was 120 µl. […] Anisotropy was measured using a Spectramax M5 plate reader from Molecular Devices.
(§3) Direct binding curves were fit using Pylab/Scipy/Optimize to a single-site binding model utilized previously.
(§4) ^1Best-fit KD values determined by combining all replicate titration curves and fitting to a direct binding model (see Methods). […] Values with an X followed by a number indicate the highest concentration (the number, in nM) for which signal was measured yet no binding was detected.

Bfl-1 = target: T2, Bfl-1 (Homo sapiens, UniProt Q16548); experiment: Fluorescence polarization direct binding
T2 construct: myc- Bfl-1 SPOT array & FP; made in house
T2 sequence (Q16548 with tags, fused parts or gaps): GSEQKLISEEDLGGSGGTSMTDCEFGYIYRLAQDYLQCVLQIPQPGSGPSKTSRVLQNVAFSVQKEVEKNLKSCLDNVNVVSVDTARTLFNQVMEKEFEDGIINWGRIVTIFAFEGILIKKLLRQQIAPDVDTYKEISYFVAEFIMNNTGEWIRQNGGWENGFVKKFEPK
Method: as §1, §2, §3, §4

Mcl-1 [1] = target: T3, Mcl-1 (Homo sapiens, UniProt Q07820); experiment: Fluorescence polarization direct binding
T3 construct: myc-Mcl-1 SPOT array & FP; made in house
T3 sequence (Q07820 with tags, fused parts or gaps): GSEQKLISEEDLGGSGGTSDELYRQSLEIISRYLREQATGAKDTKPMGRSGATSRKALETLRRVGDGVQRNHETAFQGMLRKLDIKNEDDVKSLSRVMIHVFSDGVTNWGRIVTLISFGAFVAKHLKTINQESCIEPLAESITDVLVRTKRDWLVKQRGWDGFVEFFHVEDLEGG
Method: as §1, §2, §3, §4

Bcl-w = target: T4, Bcl-w (Homo sapiens, UniProt Q92843, Q133R); experiment: Fluorescence polarization direct binding
T4 construct: myc-Bcl-w SPOT array & FP; made in house
T4 sequence (Q92843 with tags, fused parts or gaps Q133R): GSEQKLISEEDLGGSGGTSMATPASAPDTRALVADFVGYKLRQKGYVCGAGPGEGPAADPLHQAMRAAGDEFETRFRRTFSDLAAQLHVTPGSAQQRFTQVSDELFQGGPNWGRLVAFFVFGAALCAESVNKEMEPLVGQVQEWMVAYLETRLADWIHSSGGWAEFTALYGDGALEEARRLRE
Method: as §1, §2, §3, §4

Bcl-xL [2] = target: T5, Bcl-xL (Homo sapiens, UniProt Q07817); experiment: Fluorescence polarization direct binding
T5 construct: myc-Bcl-xL SPOT array & FP; made in house
T5 sequence (Q07817 with tags, fused parts or gaps): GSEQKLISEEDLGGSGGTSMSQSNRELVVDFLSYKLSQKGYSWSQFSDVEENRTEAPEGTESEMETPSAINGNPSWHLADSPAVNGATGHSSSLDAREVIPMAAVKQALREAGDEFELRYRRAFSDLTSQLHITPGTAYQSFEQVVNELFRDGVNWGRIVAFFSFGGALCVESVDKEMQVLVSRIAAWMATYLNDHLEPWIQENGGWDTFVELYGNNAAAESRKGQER
Method: as §1, §2, §3, §4

Bcl-xL [3] = target: T5, Bcl-xL; details: S1 Bim variants, specific binding measured using yeast display; ref Dutta et al. (2010); cited from earlier work
Mcl-1 [4] = target: T3, Mcl-1; details: read-out: Binder class, Mcl-1; S1 Bim variants, specific binding measured using yeast display; ref Dutta et al. (2010); cited from earlier work
Source text: Negative control mutatio ...

[5] = FP direct binding, 10 nM FAM-labeled peptide, receptor titrated, 25°C, pH 7.8, fit of all replicate titrations, X+number in a cell = highest concentration (nM) measured with no binding detected, given here as >, SPNS1 fit to raw fluorescence
[6] = FP direct binding, 10 nM FAM-labeled peptide, receptor titrated, 25°C, pH 7.8, fit of all replicate titrations, X+number in a cell = highest concentration (nM) measured with no binding detected, given here as >, SPNS1 fit to raw fluorescence, read-out: Best-fit KD, Bcl-2
[7] = benchmark classification of peptides newly characterized in this study, read-out: Binder class, Bcl-2
[8] = FP direct binding, 10 nM FAM-labeled peptide, receptor titrated, 25°C, pH 7.8, fit of all replicate titrations, X+number in a cell = highest concentration (nM) measured with no binding detected, given here as >, SPNS1 fit to raw fluorescence, read-out: Best-fit KD, Bfl-1
[9] = benchmark classification of peptides newly characterized in this study, read-out: Binder class, Bfl-1
[10] = Binder class, Mcl-1, benchmark classification of peptides newly characterized in this study
[11] = FP direct binding, 10 nM FAM-labeled peptide, receptor titrated, 25°C, pH 7.8, fit of all replicate titrations, X+number in a cell = highest concentration (nM) measured with no binding detected, given here as >, SPNS1 fit to raw fluorescence, read-out: Best-fit KD, Bcl-w
[12] = benchmark classification of peptides newly characterized in this study, read-out: Binder class, Bcl-w
[13] = FP direct binding, 10 nM FAM-labeled peptide, receptor titrated, 25°C, pH 7.8, fit of all replicate titrations, X+number in a cell = highest concentration (nM) measured with no binding detected, given here as >, SPNS1 fit to raw fluorescence, read-out: Best-fit KD, Bcl-xL
[14] = benchmark classification of peptides newly characterized in this study, read-out: Binder class, Bcl-xL

T1 sequence (P10415 with tags, fused parts or gaps DEL53-91): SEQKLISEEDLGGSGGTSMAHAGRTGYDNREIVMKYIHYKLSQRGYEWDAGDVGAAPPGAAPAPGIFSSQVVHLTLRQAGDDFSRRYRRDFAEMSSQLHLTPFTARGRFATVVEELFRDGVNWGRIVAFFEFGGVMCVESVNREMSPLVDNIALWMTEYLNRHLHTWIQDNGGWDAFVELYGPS

Substance | Kd (Bcl-2; [6]) [nM] | Kd (Bcl-2; [7]) [nM] | Kd (Bfl-1; [8]) [nM] | Kd (Bfl-1; [9]) [nM] | Kd (Mcl-1 [1]; [10]) [nM] | Kd (Mcl-1 [1]; [5]) [nM] | Kd (Bcl-w; [11]) [nM] | Kd (Bcl-w; [12]) [nM] | Kd (Bcl-xL [2]; [13]) [nM] | Kd (Bcl-xL [2]; [14]) [nM] | Binder class (Kd bin) (Bcl-xL [3]) [nM] | Kd (Mcl-1 [4]) [nM] | further results
LRLFLAQRLRWLADSAPASRATA-NH2 [NBEAL2] | 16 | < 1000 | 3270 | 1000 to 10000 | 1000 to 10000 | 3810 | 29 | < 1000 | 10 | < 1000 |  |  | Best-fit KD, Bcl-2 (Bcl-2; [5]): bound tightly; Best-fit KD, Bcl-w (Bcl-w; [5]): bound tightly; Best-fit KD, Bcl-xL (Bcl-xL [2]; [5]): bound tightly
LSDGLPVHLANIADELTQKKKMF-NH2 [AGBL2] | > 100000 | 1000 to 10000 | > 4670 | > 10000 | > 10000 | > 5030 | 5870 | 1000 to 10000 | > 4000 | > 10000 |  |  | 
PEIWVAQEIERIGNEVNAYYARR |  |  |  |  |  |  |  |  |  |  | > 10000 | < 1000 | 
PEIWVAQEIGRIGDETNAYYARR |  |  |  |  |  |  |  |  |  |  | > 10000 | < 1000 | 
PEIWVAQEIGRIGNEINAYYARR |  |  |  |  |  |  |  |  |  |  | > 10000 | < 1000 | 
PEIWVAQEINRIGEEINAYYARR |  |  |  |  |  |  |  |  |  |  | > 10000 | < 1000 | 
PEIWVAQEINRVGDEVNAYYARR |  |  |  |  |  |  |  |  |  |  | > 10000 | < 1000 | 
PEIWVAQEIRRVGDENNAYYARR |  |  |  |  |  |  |  |  |  |  | > 10000 | < 1000 | 
PEIWVAQELERIGEEVNAYYARR |  |  |  |  |  |  |  |  |  |  | > 10000 | < 1000 | 
PEIWVAQELGRDGDEFNAYYARR |  |  |  |  |  |  |  |  |  |  | < 1000 | > 10000 | 
PEIWVAQELGRNGDEYNAYYARR |  |  |  |  |  |  |  |  |  |  | < 1000 | > 10000 | 
PEIWVAQELGRTGDEVNAYYARR |  |  |  |  |  |  |  |  |  |  | > 10000 | < 1000 | 
PEIWVAQELKRAGEEFNAYYARR |  |  |  |  |  |  |  |  |  |  | < 1000 | > 10000 | 
PEIWVAQELKRNGDEFNAYYARR |  |  |  |  |  |  |  |  |  |  | < 1000 | > 10000 | 
PEIWVAQELSRAGDEFNAYYARR |  |  |  |  |  |  |  |  |  |  | < 1000 | > 10000 | 
PEIWVAQEVDRIGDEVNAYYARR |  |  |  |  |  |  |  |  |  |  | > 10000 | < 1000 | 
PEIWYAQEAKRFGDEFNAYYARR |  |  |  |  |  |  |  |  |  |  | < 1000 | > 10000 | 
PILENPEILRKTADDFLNRIALT-NH2 [CCH] | 7130 | 1000 to 10000 | > 9610 | > 10000 | > 10000 | > 4000 | 1920 | 1000 to 10000 | > 5720 | > 10000 |  |  | 
QRKHEGFERDLAALGDKVNSLGETAE-NH2 [SPTAN1] | > 3050 | 1000 to 10000 | > 3370 | > 10000 | > 10000 | 3850 | > 4350 | > 10000 | > 7000 | > 10000 |  |  | 
RLVQQSKALKELADELQERAQRP-NH2 [TRIM58] |  |  |  |  | > 10000 |  |  |  |  |  |  |  | Kd (Bcl-2): 975 nM; Kd (Bcl-2; Binder class, Bcl-2, benchmark classification of peptides newly characterized in this study): < 1000 nM; Kd (Bfl-1): > 4670 nM; Kd (Bfl-1; Binder class, Bfl-1, benchmark classification of peptides newly characterized in this study): > 10000 nM; Kd (Mcl-1 [1]): > 6070 nM; Kd (Bcl-w): 361 nM; Kd (Bcl-w; Binder class, Bcl-w, benchmark classification of peptides newly characterized in this study): > 10000 nM; Kd (Bcl-xL [2]): 4550 nM; Kd (Bcl-xL [2]; Binder class, Bcl-xL, benchmark classification of peptides newly characterized in this study): 1000 to 10000 nM
RSMVFARHLREVGDEFRSRHLNS-NH2 [POFUT2] | 98 | < 1000 | > 2280 | > 10000 | > 10000 | > 10000 | 98 | < 1000 | 39 | < 1000 |  |  | Best-fit KD, Bcl-2 (Bcl-2; [5]): bound tightly; Best-fit KD, Bcl-w (Bcl-w; [5]): bound tightly; Best-fit KD, Bcl-xL (Bcl-xL [2]; [5]): bound tightly
RVEQMAIQIKEVGDRVNYIKRSL-NH2 [TRPM7] | 124 | < 1000 | 1900 | 1000 to 10000 | > 10000 | 592 | 2490 | < 1000 | 679 | < 1000 |  |  | 
RYRHGAPAEQLRHLADMLTTKWATLQ-NH2 [PLEKHH1] | 1500 | < 1000 | > 5680 | > 10000 | > 10000 | 977 | 1400 | > 10000 | 650 | < 1000 |  |  | 
SKFVILSAHKLVFIGDTLSRQAKAAD-NH2 [BCAR1] | 2990 | 1000 to 10000 | 4680 | 1000 to 10000 | > 10000 | 912 | 3610 | < 1000 | 2540 | 1000 to 10000 |  |  | 
SYMVLAPVFGYLGDRYNRKYLMA-NH2 [SPNS1] | 28 | < 1000 | 278 | < 1000 | < 1000 | 19 | 871 | < 1000 | 96 | < 1000 |  |  | 
THEEVVHLLRNAGDEVTITVEYL-NH2 [SNTG2] | > 3050 | > 10000 | > 4070 | > 10000 | < 1000 | 22 | > 6560 | > 10000 | > 4000 | > 10000 |  |  | Best-fit KD, Mcl-1 (Mcl-1 [1]; [5]): bound tightly
